Source: ChEMBL document CHEMBL1201862, “PubChem BioAssay data set” (2004)
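Five compound concentrations were applied to cells in 96-well plates for 48 hours; endpoints were derived by simple linear interpolation of the resulting dose-response curve. GI50 = concentration required for 50% inhibition of growth.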 Calls of active or inactive are those of the source. Cut-off read from the data, not from the text of the source: active = GI50 up to about 1.1 µM and inactive = higher.

Columns and labels:
Assay in all cases: growth of human tumour cells (NCI), 48 h
[1] = system: 786-0
[2] = system: CAKI-1
[3] = system: HOP-62
[4] = system: HOP-92
[5] = system: Hs-578T
[6] = system: K562
[7] = system: KM12
[8] = system: MCF7
[9] = system: MDA-MB-435
[10] = system: MDA-N
[11] = system: NCI-H23
[12] = system: SK-MEL-28
[13] = system: SK-MEL-2
[14] = system: SNB-19
[15] = system: SNB-75
[16] = system: T47D
[17] = system: TK-10
[18] = system: U-251
[19] = system: UACC-62
[20] = system: SF-539

Measured: GI50

O=C1O/C(=C\c2ccccc2)N(c2ccccc2)C1=O
inactive: [1] > 100 µM | [2] > 100 µM | [3] > 100 µM | [4] > 100 µM | [5] > 100 µM | [6] > 100 µM | [7] > 100 µM | [8] 51.8 µM | [9] > 100 µM | [10] > 100 µM | [11] > 100 µM | [12] > 100 µM | [13] > 100 µM | [14] > 100 µM | [15] > 100 µM | [16] > 100 µM | [17] > 100 µM | [18] > 100 µM | [19] > 100 µM

CC(C)(O)C1COC2=C1C(=O)c1ccccc1C2=O (stereo not given)
inactive: [1] 41.3 µM | [2] 60.7 µM | [4] 27.5 µM | [5] 27 µM | [6] 35.2 µM | [7] 88.3 µM | [8] 20.3 µM | [9] 23.3 µM | [10] 18.6 µM | [11] 18.2 µM | [20] 43.6 µM | [12] 23.2 µM | [13] 29.7 µM | [14] > 100 µM | [15] 19.8 µM | [16] 33.4 µM | [18] 58.5 µM | [19] 22.9 µM

Clc1ccc(-c2cn3c(nc4ccccc43)c(/C=C/c3cccs3)n2)cc1
inactive: [1] > 100 µM | [3] > 100 µM | [4] > 100 µM | [5] 43.8 µM | [6] 49.1 µM | [7] 33.7 µM | [8] 7.08 µM | [9] 37.3 µM | [10] > 100 µM | [11] 52.5 µM | [20] > 100 µM | [12] > 100 µM | [13] 41.6 µM | [14] > 100 µM | [15] > 100 µM | [16] 27.3 µM | [17] 86.1 µM | [18] 95.7 µM | [19] > 100 µM

Fc1c(F)c(C(F)(F)F)c(F)c(F)c1N/N=C\c1c[nH]c2ccccc12
inactive: [1] 3.44 µM | [2] 2.55 µM | [3] 1.55 µM | [4] 3.61 µM | [5] 8.38 µM | [6] 2.87 µM | [7] 1.94 µM | [8] 2.69 µM | [9] 1.51 µM | [10] 1.72 µM | [11] 3.95 µM | [12] 6.82 µM | [13] 2.78 µM | [14] 2.86 µM | [15] 1.27 µM | [16] 2.4 µM | [17] 4.48 µM | [18] 3.23 µM | [19] 2.44 µM
